In one experiment the target is GABAB receptor (Homo sapiens, UniProt Q9UBS5). The format is binding, rat and human. The settings on record: control ligand tested at the highest concentration.
For experiment [1] the following is noted: read-out: Kd, literature value; SPR on immobilized GM1; cited from earlier work.

In general, Kd refers to the free concentration of one partner at which half of the binding sites on the other are occupied at equilibrium, for simple one-to-one binding.

GABAB receptor, sequence (Q9UBS5 1-844 isoform Q9UBS5-2): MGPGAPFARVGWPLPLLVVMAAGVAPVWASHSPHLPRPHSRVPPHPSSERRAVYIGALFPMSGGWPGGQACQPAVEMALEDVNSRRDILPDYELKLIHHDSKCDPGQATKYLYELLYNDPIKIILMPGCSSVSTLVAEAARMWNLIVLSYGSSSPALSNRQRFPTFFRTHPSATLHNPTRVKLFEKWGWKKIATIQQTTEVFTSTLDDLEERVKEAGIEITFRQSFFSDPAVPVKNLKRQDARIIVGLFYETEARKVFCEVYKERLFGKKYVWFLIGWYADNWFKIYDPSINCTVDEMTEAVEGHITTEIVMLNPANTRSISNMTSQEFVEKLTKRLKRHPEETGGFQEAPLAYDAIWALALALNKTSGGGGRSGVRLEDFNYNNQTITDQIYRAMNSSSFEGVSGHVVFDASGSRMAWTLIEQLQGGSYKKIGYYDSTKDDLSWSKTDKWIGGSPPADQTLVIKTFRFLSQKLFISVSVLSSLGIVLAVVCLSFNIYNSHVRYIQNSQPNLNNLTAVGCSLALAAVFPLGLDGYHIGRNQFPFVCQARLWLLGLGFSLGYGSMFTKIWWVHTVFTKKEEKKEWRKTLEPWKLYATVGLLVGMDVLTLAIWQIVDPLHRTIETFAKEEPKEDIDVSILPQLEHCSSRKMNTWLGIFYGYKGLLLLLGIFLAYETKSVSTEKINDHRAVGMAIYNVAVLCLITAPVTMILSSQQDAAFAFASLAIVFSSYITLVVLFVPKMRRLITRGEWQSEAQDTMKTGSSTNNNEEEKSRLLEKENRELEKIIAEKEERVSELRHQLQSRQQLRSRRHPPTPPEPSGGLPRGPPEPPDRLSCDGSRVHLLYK
GABAB receptor, sequence (O88871 41-940 partner): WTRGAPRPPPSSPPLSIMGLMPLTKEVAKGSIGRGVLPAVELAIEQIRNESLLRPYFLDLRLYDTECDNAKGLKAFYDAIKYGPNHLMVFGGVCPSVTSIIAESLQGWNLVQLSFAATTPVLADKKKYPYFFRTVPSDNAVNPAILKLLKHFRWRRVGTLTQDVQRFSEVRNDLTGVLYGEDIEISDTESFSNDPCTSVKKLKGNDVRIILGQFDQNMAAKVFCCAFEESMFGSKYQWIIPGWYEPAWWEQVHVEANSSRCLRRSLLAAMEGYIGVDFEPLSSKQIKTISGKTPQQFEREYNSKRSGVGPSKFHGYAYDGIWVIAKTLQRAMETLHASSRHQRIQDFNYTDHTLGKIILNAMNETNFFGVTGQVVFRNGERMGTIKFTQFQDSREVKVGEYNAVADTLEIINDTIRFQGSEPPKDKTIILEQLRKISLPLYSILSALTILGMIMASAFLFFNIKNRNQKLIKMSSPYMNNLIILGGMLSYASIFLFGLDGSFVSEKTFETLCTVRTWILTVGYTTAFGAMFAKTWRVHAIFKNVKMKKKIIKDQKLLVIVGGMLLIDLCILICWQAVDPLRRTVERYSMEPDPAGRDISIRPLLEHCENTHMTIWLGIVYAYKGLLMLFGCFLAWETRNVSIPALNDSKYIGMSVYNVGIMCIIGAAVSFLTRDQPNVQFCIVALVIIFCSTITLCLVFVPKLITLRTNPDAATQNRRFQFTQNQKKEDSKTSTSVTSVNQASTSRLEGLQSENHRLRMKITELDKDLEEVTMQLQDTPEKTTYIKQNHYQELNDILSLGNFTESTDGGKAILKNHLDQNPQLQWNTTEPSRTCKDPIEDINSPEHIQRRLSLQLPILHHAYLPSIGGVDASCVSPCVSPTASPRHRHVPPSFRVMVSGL

Take `C[C@H](N)C(=O)O` [L-alanine]: on GABAB receptor, the “BSI binding curve (negative control)” value was “negative control”.
For the compound `CC(C)CCC[C@@H](C)[C@H]1CC[C@H]2[C@@H]3CC=C4C[C@@H](O)CC[C@]4(C)[C@H]3CC[C@]12C` [cholesterol], the “BSI binding curve (negative control)” value at GABAB receptor is listed as “negative control”.
Turning to “Cholera toxin B subunit: cholera toxin B subunit, soluble protein that binds GM1; purchased from Sigma”, the Kd in experiment [1] was 4 pM.

These data come from article PMC3246389 (Nature biotechnology, 2011).
